Target: IKZF2 (Homo sapiens (Human), UniProt Q96SW2+Q9UKS7)
Test: IKZF2 HiBiT Assay (Jurkat-IKZF2-HiBiT cell line)
Type: cell-based
Details: Jurkat-IKZF2-HiBiT cells, 24 hours; for DC50: read-out: HiBit assay degradation analysis DC50; for Dmax: read-out: HiBit assay degradation analysis Dmax
Experimental: Degradation of IKZF2 protein is determined by IKZF2 HiBiT assay using the Jurkat-IKZF2-HiBiT (Promega) cell line. Briefly, cells are seeded in culture medium. Compounds are serially diluted in culture medium, and certain volume of the diluted compounds is added to the appropriate well of the plate. After the addition of compounds, the cells are incubated. At the end of treatment, Nano-Glo HiBiT Lytic Detection Reagent (Promega) is added to each well, and then the plates are incubated at room temperature for a certain time period. The luminescent signal is measured using a CALRIOstar plate reader (BMG Labtech). The readings are normalized to the DMSO-treated cells and the IC50 is calculated by nonlinear regression (four parameters sigmoid fitted with variable slope, least squares fit, and no constraint) analysis using the GraphPad Prism 8 software.
Degradation of IKZF2 protein was determined by IKZF2 HiBiT assay using the Jurkat-IKZF2-HiBiT (Promega) cell line. […] Compounds were serially diluted in culture medium, and 20 μl of the diluted compounds were added to the appropriate wells of the plate. After the addition of compounds, the cells were incubated at 37° C. in an atmosphere of 5% CO2 for 24 hours. At the end of treatment, 40 ul of Nano-Glo HiBiT Lytic Detection Reagent (Promega) was added to each well, and then the plates were incubated at room temperature for 10-20 minutes. The luminescent signal was measured using a CALRIOstar plate reader (BMG Labtech). The readings were normalized to the DMSO-treated cells and the IC50 was calculated by nonlinear regression (four parameters sigmoid fitted with variable slope, least squares fit, and no constraint) analysis using the GraphPad Prism 8 software.

Chain of IKZF2 (Q9UKS7 whole entry): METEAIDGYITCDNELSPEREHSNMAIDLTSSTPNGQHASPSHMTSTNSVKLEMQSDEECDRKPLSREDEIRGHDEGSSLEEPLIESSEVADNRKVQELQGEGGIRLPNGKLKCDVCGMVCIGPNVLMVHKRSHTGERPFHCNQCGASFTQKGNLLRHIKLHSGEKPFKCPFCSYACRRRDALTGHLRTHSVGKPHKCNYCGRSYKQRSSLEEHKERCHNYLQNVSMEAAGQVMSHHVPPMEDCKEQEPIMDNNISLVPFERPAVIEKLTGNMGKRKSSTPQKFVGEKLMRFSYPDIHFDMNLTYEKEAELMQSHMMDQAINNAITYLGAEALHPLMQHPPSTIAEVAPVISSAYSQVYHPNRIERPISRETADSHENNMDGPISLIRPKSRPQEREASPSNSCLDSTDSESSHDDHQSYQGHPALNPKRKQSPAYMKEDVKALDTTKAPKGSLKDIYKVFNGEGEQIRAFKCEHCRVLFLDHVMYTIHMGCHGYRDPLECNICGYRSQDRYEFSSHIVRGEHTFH
Chain of IKZF2 (Q96SW2 whole entry): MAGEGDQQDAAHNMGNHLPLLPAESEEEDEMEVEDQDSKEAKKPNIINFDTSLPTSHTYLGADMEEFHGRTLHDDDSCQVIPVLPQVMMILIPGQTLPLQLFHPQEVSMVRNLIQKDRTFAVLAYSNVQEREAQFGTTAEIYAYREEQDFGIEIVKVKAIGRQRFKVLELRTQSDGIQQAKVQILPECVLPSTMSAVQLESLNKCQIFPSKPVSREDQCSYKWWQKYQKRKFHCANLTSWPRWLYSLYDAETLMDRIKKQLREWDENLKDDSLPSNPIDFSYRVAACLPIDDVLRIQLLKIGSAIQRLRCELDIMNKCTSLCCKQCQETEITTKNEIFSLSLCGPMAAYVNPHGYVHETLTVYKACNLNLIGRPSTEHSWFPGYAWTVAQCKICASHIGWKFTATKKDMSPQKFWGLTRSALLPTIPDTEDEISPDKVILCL
Chain of IKZF2 (Q16531 whole entry partner): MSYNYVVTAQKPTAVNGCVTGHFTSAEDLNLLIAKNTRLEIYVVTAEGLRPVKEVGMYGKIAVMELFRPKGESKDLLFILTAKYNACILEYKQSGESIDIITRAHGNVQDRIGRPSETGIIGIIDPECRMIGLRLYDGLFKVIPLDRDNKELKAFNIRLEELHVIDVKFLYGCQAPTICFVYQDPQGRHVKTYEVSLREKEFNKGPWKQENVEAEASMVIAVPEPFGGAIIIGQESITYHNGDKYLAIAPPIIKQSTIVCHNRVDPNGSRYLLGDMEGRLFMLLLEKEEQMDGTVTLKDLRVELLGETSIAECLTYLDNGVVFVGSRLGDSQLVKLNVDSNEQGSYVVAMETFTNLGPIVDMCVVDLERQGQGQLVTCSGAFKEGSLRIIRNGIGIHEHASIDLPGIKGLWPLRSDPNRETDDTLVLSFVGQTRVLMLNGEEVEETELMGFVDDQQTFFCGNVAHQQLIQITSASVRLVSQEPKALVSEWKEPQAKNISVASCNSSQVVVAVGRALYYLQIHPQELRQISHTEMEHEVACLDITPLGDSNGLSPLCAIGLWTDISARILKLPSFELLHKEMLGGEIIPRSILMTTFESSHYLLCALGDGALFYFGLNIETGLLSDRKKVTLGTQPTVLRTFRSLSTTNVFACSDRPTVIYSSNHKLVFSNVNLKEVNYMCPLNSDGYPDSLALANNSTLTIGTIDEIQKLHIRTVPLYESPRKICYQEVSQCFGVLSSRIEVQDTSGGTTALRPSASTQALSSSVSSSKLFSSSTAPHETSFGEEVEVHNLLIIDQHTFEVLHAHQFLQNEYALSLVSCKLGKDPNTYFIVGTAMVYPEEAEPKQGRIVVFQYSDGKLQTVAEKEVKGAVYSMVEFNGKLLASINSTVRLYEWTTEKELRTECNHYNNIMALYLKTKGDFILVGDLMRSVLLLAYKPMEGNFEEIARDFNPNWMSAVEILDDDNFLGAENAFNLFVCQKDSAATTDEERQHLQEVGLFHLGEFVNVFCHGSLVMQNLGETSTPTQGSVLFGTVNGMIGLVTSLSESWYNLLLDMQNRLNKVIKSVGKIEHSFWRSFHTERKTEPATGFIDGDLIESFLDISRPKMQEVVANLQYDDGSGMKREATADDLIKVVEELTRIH

Row | SMILES | DC50 [nM] | Dmax [%]
1 | O=C1CCC(N2Cc3c(ccc4c3OCC43CCN(Cc4ccc5nccn5c4)CC3)C2=O)C(=O)N1 (centres unmarked) [Compound A79] | > 500 | < 40
2 | O=C1CCC(N2Cc3c(ccc4c3OCC43CCN(Cc4ncccn4)CC3)C2=O)C(=O)N1 (centres unmarked) [Compound A206, 3-(6-oxo-1′-(pyrimidin-2-ylmethyl)-6,8-dihydro-2H,7H-spiro[furo[2,3-e]isoindole-3,4′-piperidin]-7-yl)piperidine-2,6-dione] | > 500 | < 40
3 | O=C1CCC(N2Cc3c(ccc4c3OCC43CCN(Cc4cccc(C(F)F)c4)CC3)C2=O)C(=O)N1 (centres unmarked) [Compound A94, 3-(1′-(3-(difluoromethyl)benzyl)-6-oxo-6,8-dihydro-2H,7H-spiro[furo[2,3-e]isoindole-3,4′-piperidin]-7-yl)piperidine-2,6-dione] | 200 to 500 | 40 to 60
4 | COCCn1cc(-c2cccc(CN3CCC4(CC3)COc3c4ccc4c3CN([C@H]3CCC(=O)NC3=O)C4=O)c2)cn1 [Compound A286, (S)-3-(1′-(3-(1-(2-methoxyethyl)-1H-pyrazol-4-yl)benzyl)-6-oxo-6,8-dihydro-2H,7H-spiro[furo[2,3-e]isoindole-3,4′-piperidin]-7-yl)piperidine-2,6-dione] | 50 to 200 | 60 to 80
5 | O=C1CCC(N2Cc3c(ccc4c3OCCC43CCNCC3)C2=O)C(=O)N1 (centres unmarked) [Compound A2, 3-(7′-oxo-2′,3′,7′,9′-tetrahydro-8′H-spiro[piperidine-4,4′-pyrano[2,3-e]isoindol]-8′-yl)piperidine-2,6-dione] | – | < 40
6 | O=C1CCC(N2Cc3c(ccc4c3OCC43CCN(Cc4ccc(OC(F)F)cc4)CC3)C2=O)C(=O)N1 (centres unmarked) [Compound A197, 3-(1′-(4-(difluoromethoxy)benzyl)-6-oxo-6,8-dihydro-2H,7H-spiro[furo[2,3-e]isoindole-3,4′-piperidin]-7-yl)piperidine-2,6-dione] | > 500 | < 40
7 | O=C1CC[C@H](N2Cc3c(ccc4c3OCC43CCN(Cc4ccc5c(c4)NC(=O)CC5)CC3)C2=O)C(=O)N1 [Compound A303, 3-(6-oxo-1′-((2-oxo-1,2,3,4-tetrahydroquinolin-7-yl)methyl)-6,8-dihydro-2H,7H-spiro[furo[2,3-e]isoindole-3,4′-piperidin]-7-yl)piperidine-2,6-dione] | 200 to 500 | 60 to 80
8 | O=C1CCC(N2Cc3c(ccc4c3OCC43CCN(Cc4ccn(-c5ccc(Cl)cc5)n4)CC3)C2=O)C(=O)N1 (centres unmarked) [Compound A243, 3-(1′-((1-(4-chlorophenyl)-1H-pyrazol-3-yl)methyl)-6-oxo-6,8-dihydro-2H,7H-spiro[furo[2,3-e]isoindole-3,4′-piperidin]-7-yl)piperidine-2,6-dione] | 50 to 200 | 60 to 80
9 | O=C1CCC(N2Cc3c(ccc4c3OCC43CCN(Cc4c(F)ccc5[nH]ccc45)CC3)C2=O)C(=O)N1 (centres unmarked) [Compound A137, 3-(1′-((5-fluoro-1H-indol-4-yl)methyl)-6-oxo-6,8-dihydro-2H,7H-spiro[furo[2,3-e]isoindole-3,4′-piperidin]-7-yl)piperidine-2,6-dione] | < 50 | 60 to 80
10 | O=C1CCC(N2Cc3c(ccc4c3OCC43CCN(Cc4cnn(Cc5ccccc5F)c4)CC3)C2=O)C(=O)N1 (centres unmarked) [Compound A239, 3-(1′-((1-(2-fluorobenzyl)-1H-pyrazol-4-yl)methyl)-6-oxo-6,8-dihydro-2H,7H-spiro[furo[2,3-e]isoindole-3,4′-piperidin]-7-yl)piperidine-2,6-dione] | < 50 | 60 to 80
11 | O=C1CCC(N2Cc3c(ccc4c3OCC43CCN(Cc4ccc(C5CC5)cc4)CC3)C2=O)C(=O)N1 (centres unmarked) [Compound A205, 3-(1′-(4-cyclopropylbenzyl)-6-oxo-6,8-dihydro-2H,7H-spiro[furo[2,3-e]isoindole-3,4′-piperidin]-7-yl)piperidine-2,6-dione] | 200 to 500 | 40 to 60
12 | O=C1CCC(N2Cc3c(ccc4c3OCC43CCN(Cc4cnn(-c5cccc(F)c5)c4)CC3)C2=O)C(=O)N1 (centres unmarked) [Compound A311, 3-(1′-((1-(3-fluorophenyl)-1H-pyrazol-4-yl)methyl)-6-oxo-6,8-dihydro-2H,7H-spiro[furo[2,3-e]isoindole-3,4′-piperidin]-7-yl)piperidine-2,6-dione] | > 500 | 40 to 60
13 | Cc1c(-c2cccc(CN3CCC4(CC3)COc3c4ccc4c3CN([C@H]3CCC(=O)NC3=O)C4=O)c2)cnn1C [Compound A284, (S)-3-(1′-(3-(1,5-dimethyl-1H-pyrazol-4-yl)benzyl)-6-oxo-6,8-dihydro-2H,7H-spiro[furo[2,3-e]isoindole-3,4′-piperidin]-7-yl)piperidine-2,6-dione] | < 50 | 60 to 80
14 | O=C1CC[C@H](N2Cc3c(ccc4c3OCC43CCN(Cc4cc(F)cc(-c5cnn(C6COC6)c5)c4)CC3)C2=O)C(=O)N1 [Compound A276, (S)-3-(1′-(3-fluoro-5-(1-(oxetan-3-yl)-1H-pyrazol-4-yl)benzyl)-6-oxo-6,8-dihydro-2H,7H-spiro[furo[2,3-e]isoindole-3,4′-piperidin]-7-yl)piperidine-2,6-dione] | < 50 | 40 to 60
15 | CCOc1cc(CN2CCC3(CC2)COc2c3ccc3c2CN(C2CCC(=O)NC2=O)C3=O)ccn1 (centres unmarked) [Compound A247, 3-(1′-((2-ethoxypyridin-4-yl)methyl)-6-oxo-6,8-dihydro-2H,7H-spiro[furo[2,3-e]isoindole-3,4′-piperidin]-7-yl)piperidine-2,6-dione] | > 500 | < 40
16 | O=C1CCC(N2Cc3c(ccc4c3OCC43CCN(Cc4cccc5c4CCCO5)CC3)C2=O)C(=O)N1 (centres unmarked) [Compound A218, 3-(1′-(chroman-5-ylmethyl)-6-oxo-6,8-dihydro-2H,7H-spiro[furo[2,3-e]isoindole-3,4′-piperidin]-7-yl)piperidine-2,6-dione] | < 50 | 60 to 80
17 | O=C1CC[C@H](N2Cc3c(ccc4c3OCC43CCN(Cc4cccc(NC(=O)C(F)(F)F)c4)CC3)C2=O)C(=O)N1 [Compound A278, (S)-N-(3-((7-(2,6-dioxopiperidin-3-yl)-6-oxo-7,8-dihydro-2H,6H-spiro[furo[2,3-e]isoindole-3,4′-piperidin]-1′-yl)methyl)phenyl)-2,2,2-trifluoroacetamide] | < 50 | > 80
18 | O=C1CCC(N2Cc3c(ccc4c3OCC43CCN(Cc4ccc5occc5c4)CC3)C2=O)C(=O)N1 (centres unmarked) [Compound A120, 3-(1′-(benzofuran-5-ylmethyl)-6-oxo-6,8-dihydro-2H,7H-spiro[furo[2,3-e]isoindole-3,4′-piperidin]-7-yl)piperidine-2,6-dione] | < 50 | 60 to 80
19 | O=C1CCC(N2Cc3c(ccc4c3OCC43CCN(Cc4cccc(-c5cn[nH]c5)c4)CC3)C2=O)C(=O)N1 (centres unmarked) [Compound A104, 3-(1′-(3-(1H-pyrazol-4-yl)benzyl)-6-oxo-6,8-dihydro-2H,7H-spiro[furo[2,3-e]isoindole-3,4′-piperidin]-7-yl)piperidine-2,6-dione] | < 50 | > 80
20 | Cc1nn(C)cc1-c1cccc(CN2CCC3(CC2)COc2c3ccc3c2CN([C@H]2CCC(=O)NC2=O)C3=O)c1 [Compound A283, (S)-3-(1′-(3-(1,3-dimethyl-1H-pyrazol-4-yl)benzyl)-6-oxo-6,8-dihydro-2H,7H-spiro[furo[2,3-e]isoindole-3,4′-piperidin]-7-yl)piperidine-2,6-dione] | 50 to 200 | 60 to 80
21 | O=C1CC[C@H](N2Cc3c(ccc4c3OCC43CCN(Cc4ccc5c(c4)C(=O)NC5)CC3)C2=O)C(=O)N1 [Compound A171, (S)-3-(6-oxo-1′-((3-oxoisoindolin-5-yl)methyl)-6,8-dihydro-2H,7H-spiro[furo[2,3-e]isoindole-3,4′-piperidin]-7-yl)piperidine-2,6-dione] | 50 to 200 | 60 to 80
22 | O=C1CCC(N2Cc3c(ccc4c3OCC43CCN(CC4Cc5ccccc5C4)CC3)C2=O)C(=O)N1 (centres unmarked) [Compound A22, 3-(1′-((2,3-dihydro-1H-inden-2-yl)methyl)-6-oxo-6,8-dihydro-2H,7H-spiro[furo[2,3-e]isoindole-3,4′-piperidin]-7-yl)piperidine-2,6-dione] | > 500 | < 40
23 | O=C1CC[C@H](N2Cc3c(ccc4c3OCC43CCN(Cc4cccc(-c5cnn(C[C@@H]6COCCO6)c5)c4)CC3)C2=O)C(=O)N1 [Compound A272, (S)-3-(1′-(3-(1-(((R)-1,4-dioxan-2-yl)methyl)-1H-pyrazol-4-yl)benzyl)-6-oxo-6,8-dihydro-2H,7H-spiro[furo[2,3-e]isoindole-3,4′-piperidin]-7-yl)piperidine-2,6-dione] | 50 to 200 | 60 to 80
24 | O=C1CC[C@H](N2Cc3c(ccc4c3OCC43CCN(Cc4ccc5cc[nH]c5c4)CC3)C2=O)C(=O)N1 [Compound A172, (S)-3-(1′-((1H-indol-6-yl)methyl)-6-oxo-6,8-dihydro-2H,7H-spiro[furo[2,3-e]isoindole-3,4′-piperidin]-7-yl)piperidine-2,6-dione] | < 50 | 60 to 80
